Earlier results, collected in PMC8950868, “Identifying Human PTP1B Enzyme Inhibitors from Marine Natural Products: Perspectives for Developing of Novel Insulin-Mimetic Drugs” (Pharmaceuticals, 2022).

Test system: GST–PTP1B fusion protein
Set-up: method as in PMID 27064611
Conditions: different pH value, read-out: IC50 on PTP1B previously determined; cited from earlier work

CCCCCCCCCCCCCCC(OP(=O)(O)O)C(O)CCCO (stereo not shown) [Compound 3]
IC50: 24 ± 7 µM
